Measured values as given in patent publication US20030175216A1, “Oral antimicrobial and anti-odor compositions” (Innoscent LTD., priority 2001, published 2003).

Key:
[1] = test system: odor formation in freshly-taken morning saliva; assay: Inhibition of in vitro odor formation by higher alcohols (saliva in decarboxylase medium); format: cell-based
Description: A series of test tubes were prepared, each containing 5 ml of decarboxylase medium (0.5% peptone, 0.3% yeast extract, 0.1% dextrose and 0.02% bromocresol purple). […] The tubes were incubated at 37° C. for three days. Following incubation, the odor was determined by a panel of odor judges, using the following semi-quantitative scale 0=no odor 1=very slight odor […] The higher alcohols tested were alkanols of chain length C8, C9, C10, C11, C12, C14, C16 and C18.

[2] = test system: C. albicans; assay: Agar plate zone of growth inhibition; format: cell-based, Candida albicans
Description: (§1) The higher alcohols were tested for antimicrobial activity against Gram positive bacteria (Streptococcus mutans), Gram negative bacteria (Pseudomonas spp., Escherichia coli, […]) and the yeast Candida albicans. […] Five microliters of the higher alcohol solutions were placed on the surface of a rich (Brain-heart infusion) agar plate immediately after seeding with a mono-specific bacterial or yeast culture. The plates were incubated for 24-48 hours, and, following further microbial proliferation, the diameters of the zones of growth inhibition were measured (results expressed in centimeters).

[3] = test system: E. coli; assay: Agar plate zone of growth inhibition; format: cell-based, Escherichia coli
Description: as §1

[4] = test system: C. xerosis; assay: Agar plate zone of growth inhibition; format: cell-based, Corynebacterium xerosis
Description: (§2) Five microliters of the higher alcohol solutions were placed on the surface of a rich (Brain-heart infusion) agar plate immediately after seeding with a mono-specific bacterial or yeast culture. The plates were incubated for 24-48 hours, and, following further microbial proliferation, the diameters of the zones of growth inhibition were measured (results expressed in centimeters). In a further set of experiments, the effect of solvent type on the antimicrobial activity of the C9 alcohol was investigated. […] These solutions were tested for antimicrobial activity towards three microorganisms (M. lysodeikticus, S. mutans and Corynebacterium xerosis) using the same assay as described above.

[5] = test system: E. faecalis; assay: Agar plate zone of growth inhibition; format: cell-based
Description: as §1

[6] = test system: Pseudomonas aeruginosa; assay: Agar plate zone of growth inhibition; format: cell-based
Description: as §1

[7] = test system: M. lysodeikticus; assay: Agar plate zone of growth inhibition; format: cell-based
Description: as §2, with “above. The relationship of the concentration of the C9 alcohol to its antimicrobial activity was also investigated. […] These solutions were tested in the assay described above for their ability to inhibit the growth of the bacteria M. lysodeikticus and S. mutans.” for “above.”

[8] = test system: bacteria and yeast tested; assay: Agar plate growth inhibition, summary statements over the test microorganisms; format: cell-based; details: for antimicrobial activity (summary): C. xerosis
Description: as §2, with “The higher alcohols were tested for antimicrobial activity against Gram positive bacteria (Streptococcus mutans), Gram negative bacteria (Pseudomonas spp., Escherichia coli, […]) and the yeast Candida albicans. […] Five” for “Five”, “above. The relationship of the concentration of the C9 alcohol to its antimicrobial activity was also investigated. […] These solutions were tested in the assay described above for their ability to inhibit the growth of the bacteria M. lysodeikticus and S. mutans.” for “above.”

[9] = test system: S. mutans; assay: Agar plate zone of growth inhibition; format: cell-based, Streptococcus mutans
Description: as §2, with “The higher alcohols were tested for antimicrobial activity against Gram positive bacteria (Streptococcus mutans), Gram negative bacteria (Pseudomonas spp., Escherichia coli, […]) and the yeast Candida albicans. […] Five” for “Five”, “above. The relationship of the concentration of the C9 alcohol to its antimicrobial activity was also investigated. […] These solutions were tested in the assay described above for their ability to inhibit the growth of the bacteria M. lysodeikticus and S. mutans.” for “above.”

[10] = 10 μl of 1% solution, scale 0-5
[11] = 20 μl of 1% solution, scale 0-5
[12] = 30 μl of 1% solution, scale 0-5
[13] = 40 μl of 1% solution, scale 0-5
[14] = 5 μl of 0.1% solution in 70% ethanol
[15] = 5 μl of 1% solution (C8-C12 in 70% ethanol, C14-C18 in 100% ethanol)
[16] = 1% in 70% ethanol, solvent study
[17] = 0.3% C9 in 70% ethanol, concentration series
[18] = 0.5% C9 in 70% ethanol, concentration series
[19] = 1% C9 in 70% ethanol, concentration series
[20] = 2% C9 in 70% ethanol, concentration series
[21] = 3% C9 in 70% ethanol, concentration series
[22] = 4% C9 in 70% ethanol, concentration series
[23] = 5% C9 in 70% ethanol, concentration series
[24] = 10% C9 in 70% ethanol, concentration series

- effect on in vitro odor formation (summary) ([1]; 10-50 μl of 1% solution): inhibition of odor formation
Compound: CCCCCCCCCO [C9, 1-nonanol]
- Odor Score (Judge 1) [1, 10]: 4
- Odor Score (Judge 2) [1, 10]: 4
- Odor Score (Judge 1) [1, 11]: 4
- Odor Score (Judge 2) [1, 11]: 4
- Odor Score (Judge 1) [1, 12]: 0
- Odor Score (Judge 2) [1, 12]: 0
- Odor Score (Judge 1) [1, 13]: 0
- Odor Score (Judge 2) [1, 13]: 0
- Odor Score (Judge 1) ([1]; 50 μl of 1% solution (C8-C12 in 70% ethanol, C14-C18 in 100% ethanol) in 5 ml medium + 200 μl saliva, 3 days 37° C., scale 0 no odor to 5 extremely foul): 0
- Odor Score (Judge 2) ([1]; 50 μl of 1% solution, scale 0-5): 0
- diameter of zone of growth inhibition, C. albicans [2, 14]: 0.8 centimeters
- diameter of zone of growth inhibition, C. albicans [2, 15]: 0.9 centimeters
- diameter of zone of growth inhibition, E. coli [3, 14]: 1.0 centimeters
- diameter of zone of growth inhibition, E. coli [3, 15]: 1.0 centimeters
- diameter of zone of growth inhibition, C. xerosis ([4]; 1% C9 in 2-propanol): 1.0 centimeters
- diameter of zone of growth inhibition, C. xerosis ([4]; 1% C9 in 100% methanol): 0.4 centimeters
- diameter of zone of growth inhibition, C. xerosis [4, 16]: 0.9 centimeters
- diameter of zone of growth inhibition, E. faecalis [5, 14]: 0.7 centimeters
- diameter of zone of growth inhibition, E. faecalis [5, 15]: 0.9 centimeters
- diameter of zone of growth inhibition, Pseudomonas aeruginosa ([6]; 5 μl of 0.05% solution in 70% ethanol): 0.7 centimeters
- diameter of zone of growth inhibition, Pseudomonas aeruginosa [6, 14]: 0.7 centimeters
- diameter of zone of growth inhibition, Pseudomonas aeruginosa [6, 15]: 0.6 centimeters
- diameter of zone of growth inhibition, M. lysodeikticus ([7]; 0.1% C9 in 70% ethanol, concentration series): 0.7 centimeters
- diameter of zone of growth inhibition, M. lysodeikticus ([7]; 0.2% C9 in 70% ethanol, concentration series): 0.9 centimeters
- diameter of zone of growth inhibition, M. lysodeikticus [7, 17]: 0.7 centimeters
- diameter of zone of growth inhibition, M. lysodeikticus [7, 18]: 0.7 centimeters
- diameter of zone of growth inhibition, M. lysodeikticus ([7]; 1% C9 in 2-propanol): 1.3 centimeters
- diameter of zone of growth inhibition, M. lysodeikticus [7, 19]: 0.7 centimeters
- diameter of zone of growth inhibition, M. lysodeikticus ([7]; 1% C9 in 100% methanol): 0.9 centimeters
- diameter of zone of growth inhibition, M. lysodeikticus [7, 16]: 0.7 centimeters
- diameter of zone of growth inhibition, M. lysodeikticus [7, 20]: 0.9 centimeters
- diameter of zone of growth inhibition, M. lysodeikticus [7, 21]: 0.9 centimeters
- diameter of zone of growth inhibition, M. lysodeikticus [7, 22]: 0.9 centimeters
- diameter of zone of growth inhibition, M. lysodeikticus [7, 23]: 0.9 centimeters
- diameter of zone of growth inhibition, M. lysodeikticus [7, 24]: 0.9 centimeters
- antimicrobial activity (summary) ([8]; 1% C9 dissolved in water, M. lysodeikticus, S. mutans): almost devoid of activity
- antimicrobial activity (summary) ([8]; 1% C9 solutions made in the lower alcohols, M. lysodeikticus, S. mutans): highly active
- share of the maximal antibacterial effect ([8]; C9 0.1-0.2% in 70% ethanol, M. lysodeikticus, S. mutans): more than 75 % of the maximal effect
- effect on microbial growth (summary) ([8]; Table VI microorganisms): inhibit microbial growth
- spectrum of activity ([8]; among the higher alcohols tested): widest spectrum of activity
- C9 alcohol concentration giving the greatest antibacterial activity ([8]; in 70% ethanol, range 0-10%, M. lysodeikticus, S. mutans): ≥ 3%
- diameter of zone of growth inhibition, S. mutans [9, 17]: 0.8 centimeters
- diameter of zone of growth inhibition, S. mutans [9, 18]: 0.9 centimeters
- diameter of zone of growth inhibition, S. mutans ([9]; 1% C9 in 2-propanol): 1.3 centimeters
- diameter of zone of growth inhibition, S. mutans [9, 19]: 0.7 centimeters
- diameter of zone of growth inhibition, S. mutans ([9]; 1% C9 in 100% methanol): 0.9 centimeters
- diameter of zone of growth inhibition, S. mutans [9, 16]: 0.8 centimeters
- diameter of zone of growth inhibition, S. mutans [9, 20]: 0.8 centimeters
- diameter of zone of growth inhibition, S. mutans [9, 21]: 0.9 centimeters
- diameter of zone of growth inhibition, S. mutans [9, 22]: 1.0 centimeters
- diameter of zone of growth inhibition, S. mutans [9, 23]: 0.9 centimeters
- diameter of zone of growth inhibition, S. mutans [9, 14]: 0.9 centimeters
- diameter of zone of growth inhibition, S. mutans [9, 15]: 0.9 centimeters
- diameter of zone of growth inhibition, S. mutans [9, 24]: 1.0 centimeters
